Source: the supplement of paper PMC11451515

Tested on: NOMO1
Assay: cell viability relative to DMSO control; higher = less cytotoxic
Conditions: 48 h
How it was run: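 Three leukemia lines were tested: NOMO1 and SEM at 500 cells/well and P12-Ichikawa at 1000 cells/well. Each was adapted for at least four passages in each medium and seeded in 5 μl in 1536-well plates, and library compounds in DMSO were pin-dosed from 47 μM to 0.79 nM in 11 threefold steps. After 48 h at 37°C, CellTiter-Glo One luminescence was read. Viability is a percentage relative to DMSO wells on each plate, with cell-free wells as background.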

[1] = HPLM + 10% dialyzed FBS, 0.000781 µM
[2] = HPLM + 10% dialyzed FBS, 0.00234 µM
[3] = HPLM + 10% dialyzed FBS, 0.00702 µM
[4] = HPLM + 10% dialyzed FBS, 0.0211 µM
[5] = HPLM + 10% dialyzed FBS, 0.0632 µM
[6] = HPLM + 10% dialyzed FBS, 0.19 µM
[7] = HPLM + 10% dialyzed FBS, 0.569 µM
[8] = HPLM + 10% dialyzed FBS, 1.71 µM
[9] = HPLM + 10% dialyzed FBS, 5.12 µM
[10] = HPLM + 10% dialyzed FBS, 15.4 µM
[11] = HPLM + 10% dialyzed FBS, 46.1 µM
[12] = RPMI 5 mM glucose + 10% FBS, 0.000781 µM
[13] = RPMI 5 mM glucose + 10% FBS, 0.00234 µM
[14] = RPMI 5 mM glucose + 10% FBS, 0.00702 µM
[15] = RPMI 5 mM glucose + 10% FBS, 0.0211 µM
[16] = RPMI 5 mM glucose + 10% FBS, 0.0632 µM
[17] = RPMI 5 mM glucose + 10% FBS, 0.19 µM
[18] = RPMI 5 mM glucose + 10% FBS, 0.569 µM
[19] = RPMI 5 mM glucose + 10% FBS, 1.71 µM
[20] = RPMI 5 mM glucose + 10% FBS, 5.12 µM
[21] = RPMI 5 mM glucose + 10% FBS, 15.4 µM
[22] = RPMI 5 mM glucose + 10% FBS, 46.1 µM
[23] = RPMI 5 mM glucose + 10% dialyzed FBS, 0.000781 µM
[24] = RPMI 5 mM glucose + 10% dialyzed FBS, 0.00234 µM
[25] = RPMI 5 mM glucose + 10% dialyzed FBS, 0.00702 µM
[26] = RPMI 5 mM glucose + 10% dialyzed FBS, 0.0211 µM
[27] = RPMI 5 mM glucose + 10% dialyzed FBS, 0.0632 µM
[28] = RPMI 5 mM glucose + 10% dialyzed FBS, 0.19 µM
[29] = RPMI 5 mM glucose + 10% dialyzed FBS, 0.569 µM
[30] = RPMI 5 mM glucose + 10% dialyzed FBS, 1.71 µM
[31] = RPMI 5 mM glucose + 10% dialyzed FBS, 5.12 µM
[32] = RPMI 5 mM glucose + 10% dialyzed FBS, 15.4 µM
[33] = RPMI 5 mM glucose + 10% dialyzed FBS, 46.1 µM

Structure (SMILES)	cell viability [1] [%]	cell viability [2] [%]	cell viability [3] [%]	cell viability [4] [%]	cell viability [5] [%]	cell viability [6] [%]	cell viability [7] [%]	cell viability [8] [%]	cell viability [9] [%]	cell viability [10] [%]	cell viability [11] [%]	cell viability [12] [%]	cell viability [13] [%]	cell viability [14] [%]	cell viability [15] [%]	cell viability [16] [%]	cell viability [17] [%]	cell viability [18] [%]	cell viability [19] [%]	cell viability [20] [%]	cell viability [21] [%]	cell viability [22] [%]	cell viability [23] [%]	cell viability [24] [%]	cell viability [25] [%]	cell viability [26] [%]	cell viability [27] [%]	cell viability [28] [%]	cell viability [29] [%]	cell viability [30] [%]	cell viability [31] [%]	cell viability [32] [%]	cell viability [33] [%]
C[N+](C)([O-])CCNc1ccc(NCC[N+](C)(C)[O-])c2c1C(=O)c1c(O)ccc(O)c1C2=O	84.5	94.9	96.7	103	108	97.2	80.6	70.2	51.2	48	38.3	84.4	86.9	84.1	97.2	89.4	94.5	91.4	90.4	33	55.8	19.8	90.3	93.6	92.6	92.7	102	99.6	90.5	77	59.7	48.5	44
CN(C)C[C@@H]1CC[N]2C=C(C3=C2C=CC=C3)C/4=C(/C(=O)NC4=O)C5=C[N](CCO1)C6=C5C=CC=C6	88.8	111	109	96.6	102	91.4	94	88.7	95.4	85.3	27.7	98.3	85.9	89.3	87.4	91.7	92.9	93	87.5	86.1	83.5	73.3	90.6	84.2	99.8	93.4	99.6	97.3	92.3	85.8	83.7	77.7	67.7
O=c1[nH]cnc2c1ncn2[C@H]1CC[C@@H](CO)O1	91.5	91.9	118	97.9	93.2	88.8	98.6	100	107	71.9	55	78.5	88.5	93.2	94.7	87.7	87.7	101	90.4	94.4	85.5	48.4	75.4	92.5	97.8	94.5	95.1	83.5	92.8	97.3	103	89	57.1
Cc1[nH]c(/C=C2\C(=O)Nc3ccc([S+](=O)([O-])Cc4c(Cl)cccc4Cl)cc32)c(C)c1C(=O)N1CCC[C@@H]1CN1CCCC1	100	112	97.5	83	92.8	96.4	98.2	84.3	81.2	87.7	59.9	108	101	89.1	93.2	88	99.9	99.3	100	90.5	83.4	79.6	98.2	89.8	90.2	94.4	92.7	102	85.9	91.2	86.4	84.8	72.6
CC(=O)O[C@@]12CO[C@@H]1C[C@H](O)[C@]3(C)[C@@H]2[C@H](OC(=O)C4=CC=CC=C4)[C@]5(O)C[C@H](OC(=O)C(O)[C@@H](NC(=O)OC(C)(C)C)C6=CC=CC=C6)C(=C(/[C@@H](O)C3=O)C5(C)C)/C (stereo partly drawn)	32.4	37.3	34.7	39.4	42	43	31.7	27.4	27.7	7.8	5.55	23.9	27	25.5	28.9	28.2	27.1	24.7	24.8	20	12.6	8.59	25.2	30.6	27.8	31.5	28.9	29.7	27.3	26.2	18.8	11	9.95
CC1(C)CC(O)CC(C)(C)N1[O]	100	125	109	115	115	114	125	121	124	129	120	105	122	128	116	128	128	123	118	135	128	127	100	123	121	123	119	119	123	125	120	123	129
